Reference: article PMC11476629, “Exploring a Potential Optimization Route for Peptide Ligands of the Sam Domain from the Lipid Phosphatase Ship2” (International Journal of Molecular Sciences, 2024)
Several values for one entry are separate records, joined by “and”; a condition that tells them apart may be missing. Equal values may be shown once. Residues, ends and D or L forms follow the SMILES beside them. No end group written: not given here. *: point of attachment. FITC = O=C1OC2(c3ccc(O)cc3Oc3cc(O)ccc32)c2ccc(NC(=S)*)cc21; Ahx = NCCCCCC(=O)O; βAla = NCCC(=O)O

Tests used:
Ship2-Sam [1] = target: T1, Ship2-Sam (Homo sapiens, UniProt O15357); assay: NMR chemical shift perturbation studies with Ship2-Sam; format: binding; settings: 1D 1H: Ship2-Sam 27 µM, peptide 273 µM; 1H-15N HSQC: Ship2-Sam 20 µM, peptide 200 µM; PBS, 298 K
T1 construct: The Sam (Sterile alpha motif) domain of the lipid phosphatase Ship2 (Ship2-Sam); made in house; host or cells: E. coli
T1 sequence (O15357 1196-1258 limits assumed): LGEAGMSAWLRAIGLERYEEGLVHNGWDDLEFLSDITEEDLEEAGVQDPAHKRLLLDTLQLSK
Procedure: The interaction between diverse PSscan peptides and Ship2-Sam was assessed by NMR chemical shift perturbation (CSP) studies using both 1D [^1H] and 2D [^1H-^15N] HSQC experiments (Figure 4 and Figures S7–S10).
[^1H-^15N] HSQC spectra for chemical shift perturbation studies were acquired with ^15N labeled Ship2-Sam (20 μM concentration) in the absence and presence of PSscan255, PSscan258, and PSscan266 peptides (200 μM concentrations). For these experiments, concentrated peptide stocks in PBS were diluted in protein samples. The pH was checked upon each peptide’s addition and eventually carefully adjusted with NaOH or HCl solutions to avoid pH variations in the NMR samples. Chemical shift perturbation studies with 1D [^1H] NMR experiments were similarly recorded for Ship2-Sam alone (27 μM concentration) and in the presence of PSscan peptides (273 μM concentration). Spectra under identical experimental conditions were recorded for Ship2-Sam alone and following the addition of the control peptides.

PC-3 cells = settings: 50 µM, 4 h, fluorescence (deconvolution) microscopy
Procedure: The FITC-TAT-PSscan255 peptide (50 μM) was added for 4 h to PC-3 cells (5 × 10^4/mL) that were positioned on coverslips inside a Petri dish. Following incubation, cells were first washed three times with PBS and then fixed in 4% paraformaldehyde in PBS for 15 min. Next, cell permeabilization was achieved via treatment with 0.3% Triton-X 100 in PBS for 30 min. After blocking for 15 min with 2% bovine serum albumin, the coverslips were marked with phalloidin-iFluor 594 (Abcam, Milan, Italy), which was diluted 1:1000 for 1 h. After three extra rinses with PBS, the nuclei were stained with Hoechst 33342 (Thermo Fisher Scientific, Milan, Italy), diluted 1:2000, and incubated for 15 min in the dark. Lastly, the coverslips were mounted onto microscope slides with Mowiol (Sigma from Merck Group, Milan, Italy) and permitted to cure for at least 48 h before undergoing microscopy imaging. Images were taken with a Nikon Eclipse Ti2-E inverted research microscope (Nikon Instruments, Melville, NY, USA) using standard phase contrast, epifluorescence microscopy, and deconvolution. Image acquisition was accomplished with an Andor Zyla 4.2+ sCMOS high-sensitivity monochrome camera and managed by Nikon NIS-Elements Advanced Research (AR) image acquisition and analysis software.

[2] = Serum stability in FBS (RP-HPLC); format: in vitro ADME; settings: 25% fetal bovine serum, 25% FBS, 37 °C, peptide 80 µM, RP-HPLC UV peak area, average of two assays
Procedure: The PSscan255 peptide was mixed with 25% fetal bovine serum (FBS, from Merck group, Milan, Italy), previously incubated at 37 °C for 15 min, to obtain a peptide concentration equal to 80 µM in the end. These mixtures were kept at 37 °C and, at several time intervals (0, 1, 2, 3, 4, 5, 17, and 19 h), aliquots of the incubating solutions (50 µL) were quenched by using 15% trifluoroacetic acid (TFA) (50 µL) and then incubated at 2 °C for 15 min. Next, serum proteins were discarded by centrifugation (15 min at 3000 rpm), and samples were subjected to reverse-phase high-performance liquid chromatography (RP-HPLC). RP-HPLC runs were conducted with an HPLC LC-4000 series (Jasco) equipped with a UV detector by using a C18-Kinetek column (Phenomenex, Milan, Italy). Gradient elution was conducted at 25 °C; the gradient started with buffer A, consisting of water with 0.1% TFA. Then buffer B, consisting of acetonitrile with 0.1% TFA, was added from 5 to 70% in 20 min. The peak areas were integrated at diverse time lapses. Two assays were performed, and data points represent average values over the two experiments.

Ship2-Sam [3] = target: T1, Ship2-Sam; assay: BLI (BioLayer Interferometry) interaction assay; settings: biotinylated-pegylated PSscan255 immobilized on streptavidin biosensor; Ship2-Sam 20-500 µM; 1:1 Langmuir model, global analysis; read-out: KD for binding to Ship2-Sam
Procedure: The peptide was purchased in the biotinylated–pegylated form (Table S4) and immobilized on a streptavidin-coated biosensor. Kinetic experiments, carried out at diverse Ship2-Sam concentrations in the range of 20–500 µM (Figure S19), provided dose–response signals, allowing the estimation of a KD value equal to (70 ± 40) µM.
For BLI interaction assays, the Sartorius Octet® N1 System and streptavidin (SA)-coated biosensor tips (Sartorius Italy S.r.l., Grassina-Bagno a Ripoli (FI), Italy) were employed. SA biosensor tips were first hydrated in 1X PBS buffer; then, to achieve ligand immobilization, the tips were dipped, for 300 sec with 1000 rpm agitation, into 4 µL of biotinylated–pegylated PSscan255 solution (50 µg/mL). Following peptide loading, each tip was placed in contact, for 300 s with a 1000 rpm agitation speed, with 4 µL of Ship2-Sam protein at several concentrations (20, 50, 100, 300, and 500 µM). All mathematical manipulations were handled by the Octet Analysis Studio 12.2 software from Sartorius. A 1:1 Langmuir binding model was used for data fitting, and the KDs were obtained through the global analysis mode.

[4] = Peptide self-aggregation by 1D 1H NMR at diverse concentrations; format: physicochemical; settings: 1D 1H NMR in PBS/D2O (90/10 v/v), peptide 50-300 µM, constant pH
Procedure: In addition, to better understand results from NMR interaction assays, we evaluated whether peptide self-aggregation phenomena could occur in the peptide concentration range employed. Thus, NMR spectra were recorded for each PSscan peptide at diverse concentrations in the range of 50–300 µM (Figure 5, Figures S13 and S14). As all three peptides are rich in aromatic and positively charged residues, self-aggregation can occur not only through π–π stacking interactions but also through cation–π contacts between diverse peptide units. To better identify the signals of aromatic protons within 1D [^1H] NMR spectra in PBS, hydrogen/deuterium exchange experiments were conducted (Figure 5 and Figure S14). Indeed, an excess of D2O in solution induces the disappearance of HN and other exchangeable exposed protons, while aromatic and side-chain protons remain clearly visible (Figure 5 and Figure S14). When recording NMR spectra of peptides at different concentrations, particular care was also taken to keep the pH at a constant value to avoid undesired chemical shift changes.

PSscan255 = target: T2, PSscan255 (synthetic construct, also: biotinylated and pegylated, positions not given here); assay: BLI
T2 chain: KREWYKFLANKRIAY

With `CSCC[C@H](NC(=O)[C@H](Cc1ccccc1)NC(=O)[C@H](CCCCN)NC(=O)[C@H](CC(=O)O)NC(=O)[C@H](CCC(=O)O)NC(=O)[C@H](CCCNC(=N)N)NC(=O)[C@H](CCCNC(=N)N)NC(=O)[C@@H](NC(=O)[C@@H]1CCCN1C(=O)CNC(C)=O)[C@@H](C)O)C(=O)N[C@@H](Cc1ccc(O)cc1)C(=O)N[C@@H](Cc1ccccc1)C(N)=O` [CTRL, reference compound] (Ac-GPTRREDKFMYF-NH2) as the molecule, how does the “Interaction with Ship2-Sam by chemical shift perturbation” value (Ship2-Sam [1]) read?
Its value is “did not reveal high-affinity binding”.

For `CC[C@H](C)[C@H](NC(=O)[C@H](CCCNC(=N)N)NC(=O)[C@H](CCCCN)NC(=O)[C@H](CC(N)=O)NC(=O)[C@H](C)NC(=O)[C@H](CC(C)C)NC(=O)[C@H](Cc1ccccc1)NC(=O)[C@H](CCCCN)NC(=O)[C@H](Cc1ccc(O)cc1)NC(=O)[C@H](Cc1c[nH]c2ccccc12)NC(=O)[C@H](CCC(=O)O)NC(=O)[C@H](CCCNC(=N)N)NC(=O)[C@H](CCCCN)NC(=O)CNC(=O)CNC(=O)[C@H](CCC(N)=O)NC(=O)[C@@H]1CCCN1C(=O)[C@@H]1CCCN1C(=O)[C@H](CCCNC(=N)N)NC(=O)[C@H](CCCNC(=N)N)NC(=O)[C@H](CCCNC(=N)N)NC(=O)[C@H](CCC(N)=O)NC(=O)[C@H](CCCNC(=N)N)NC(=O)[C@H](CCCNC(=N)N)NC(=O)[C@H](CCCCN)NC(=O)[C@H](CCCCN)NC(=O)[C@H](CCCNC(=N)N)NC(=O)CNC(=O)CCNC(=O)CCCCCNC(=S)Nc1ccc2c(c1)C(=O)OC21c2ccc(O)cc2Oc2cc(O)ccc21)C(=O)N[C@@H](C)C(=O)N[C@@H](Cc1ccc(O)cc1)C(N)=O` [FITC-TAT-PSscan255] ({FITC-Ahx-βAla}-GRKKRRQRRRPPQGGKREWYKFLANKRIAY-NH2), which “Cellular localization after uptake” value (PC-3 cells) is on record?
The value was “positioned in the cytoplasm”.

For `CC[C@H](C)[C@H](NC(=O)[C@H](CCCNC(=N)N)NC(=O)[C@H](CCCCN)NC(=O)[C@H](CC(N)=O)NC(=O)[C@H](C)NC(=O)[C@H](CC(C)C)NC(=O)[C@H](Cc1ccccc1)NC(=O)[C@H](CCCCN)NC(=O)[C@H](Cc1ccc(O)cc1)NC(=O)[C@H](Cc1c[nH]c2ccccc12)NC(=O)[C@H](CCC(=O)O)NC(=O)[C@H](CCCNC(=N)N)NC(=O)[C@H](CCCCN)NC(C)=O)C(=O)N[C@@H](C)C(=O)N[C@@H](Cc1ccc(O)cc1)C(N)=O` [PSscan255] (Ac-KREWYKFLANKRIAY-NH2), which remaining at 5 h, 80 µM ([2]; 5 h, read-out: Peptide recovered after incubation with FBS) is on record?
The remaining at 5 h, 80 µM was 80%.

What about the remaining at 19 h, 80 µM ([2]; 19 h, read-out: Peptide not degraded after incubation with FBS) of the same molecule?
Its remaining at 19 h, 80 µM is 50%.

And the Kd (Ship2-Sam [3])?
Its Kd is ~70 µM and 70 µM.

Which “Interaction with Ship2-Sam by chemical shift perturbation” value (Ship2-Sam [1]) does the source give for `CC[C@H](C)[C@H](NC(=O)[C@H](CCCNC(=N)N)NC(=O)[C@H](CCCCN)NC(=O)[C@H](CC(N)=O)NC(=O)[C@H](C)NC(=O)[C@H](CCSC)NC(=O)[C@H](Cc1ccccc1)NC(=O)[C@H](CCCCN)NC(=O)[C@H](Cc1ccc(O)cc1)NC(=O)[C@H](Cc1c[nH]c2ccccc12)NC(=O)[C@H](CC(=O)O)NC(=O)[C@H](CCCNC(=N)N)NC(=O)[C@H](CCCCN)NC(C)=O)C(=O)N[C@@H](C)C(=O)N[C@@H](Cc1ccc(O)cc1)C(N)=O` [PSscan258] (Ac-KRDWYKFMANKRIAY-NH2) here?
The value was “weakest”.

Which Self-aggregation [4] does the source give for `CC[C@H](C)[C@H](NC(=O)[C@H](CCCNC(=N)N)NC(=O)[C@H](CCCCN)NC(=O)[C@H](CC(N)=O)NC(=O)[C@H](C)NC(=O)[C@H](CCSC)NC(=O)[C@H](Cc1ccccc1)NC(=O)[C@H](CCCCN)NC(=O)[C@H](Cc1ccc(O)cc1)NC(=O)[C@H](Cc1c[nH]c2ccccc12)NC(=O)[C@H](CCC(=O)O)NC(=O)[C@H](CCCNC(=N)N)NC(=O)[C@H](CCSC)NC(C)=O)C(=O)N[C@@H](C)C(=O)N[C@@H](Cc1ccc(O)cc1)C(N)=O` [PSscan266] (Ac-MREWYKFMANKRIAY-NH2) here?
The Self-aggregation was “could be affected by a certain amount of self-aggregation”.

What about the “Interaction with Ship2-Sam by chemical shift perturbation” value (Ship2-Sam [1]) of the same molecule?
The value was “weak interactions”.

B1: Ship2-Sam Sam (protein)
chain: ASGLGEAGMSAWLRAIGLERYEEGLVHNGWDDLEFLSDITEEDLEEAGVQDPAHKRLLLDTLQLSK
With B1 as the molecule, how does the Kd (PSscan255) read?
The Kd was 70 µM.
